Reference: paper PMC5344672 (Journal of medicinal chemistry, 2016)
“Also recorded” adds a separate entry of the source.

Assays:
C57BL/6 mice = experiment: Respiratory rate; format: in vivo, mouse
mice [1] = experiment: Antinociceptive tolerance after repeated dosing; format: in vivo, mouse; details: twice daily dosing
mice [2] = experiment: Gastrointestinal transit; format: in vivo, mouse
mice [3] = details: mouse, in vivo
mice [4] = experiment: Radiant heat tail flick antinociception; format: in vivo, mouse
MOR-1 = MOR-1 (Mus musculus, UniProt P42866); experiment: [35S]GTPγS functional assay, MOR-1 transfected cells; format: biochemical; details: in words
MOR-1, sequence (P42866 whole entry): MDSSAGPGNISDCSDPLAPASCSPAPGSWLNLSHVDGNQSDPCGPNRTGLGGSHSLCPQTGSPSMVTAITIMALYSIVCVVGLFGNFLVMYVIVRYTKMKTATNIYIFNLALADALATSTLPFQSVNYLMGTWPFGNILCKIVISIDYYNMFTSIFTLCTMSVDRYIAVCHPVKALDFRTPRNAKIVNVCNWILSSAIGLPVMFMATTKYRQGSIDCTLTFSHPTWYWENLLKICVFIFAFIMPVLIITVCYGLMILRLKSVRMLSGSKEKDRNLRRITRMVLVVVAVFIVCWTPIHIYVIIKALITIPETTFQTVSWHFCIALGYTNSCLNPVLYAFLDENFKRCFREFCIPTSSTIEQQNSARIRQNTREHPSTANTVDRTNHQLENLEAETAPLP

DOR-1 = DOR-1 (Mus musculus, UniProt P32300); experiment: [35S]GTPγS functional assay, DOR-1 transfected cells; format: biochemical; details: in words
DOR-1, sequence (P32300 whole entry): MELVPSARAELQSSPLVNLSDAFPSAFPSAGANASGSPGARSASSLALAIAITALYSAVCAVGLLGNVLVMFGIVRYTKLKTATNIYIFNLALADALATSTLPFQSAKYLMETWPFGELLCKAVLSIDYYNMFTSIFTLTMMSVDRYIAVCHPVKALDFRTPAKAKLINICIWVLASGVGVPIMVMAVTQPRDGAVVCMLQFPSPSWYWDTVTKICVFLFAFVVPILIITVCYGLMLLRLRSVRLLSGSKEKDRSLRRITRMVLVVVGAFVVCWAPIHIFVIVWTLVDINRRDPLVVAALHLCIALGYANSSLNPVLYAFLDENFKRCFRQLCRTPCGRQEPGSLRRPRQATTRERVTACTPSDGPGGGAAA

[5] = molecular target: panel of other nonopioid drug targets; experiment: PDSP screening panel; format: binding; details: read-out: Ki at nonopioid drug targets
KOR-1 = KOR-1 (Mus musculus, UniProt P33534); format: biochemical
KOR-1, sequence (P33534 whole entry): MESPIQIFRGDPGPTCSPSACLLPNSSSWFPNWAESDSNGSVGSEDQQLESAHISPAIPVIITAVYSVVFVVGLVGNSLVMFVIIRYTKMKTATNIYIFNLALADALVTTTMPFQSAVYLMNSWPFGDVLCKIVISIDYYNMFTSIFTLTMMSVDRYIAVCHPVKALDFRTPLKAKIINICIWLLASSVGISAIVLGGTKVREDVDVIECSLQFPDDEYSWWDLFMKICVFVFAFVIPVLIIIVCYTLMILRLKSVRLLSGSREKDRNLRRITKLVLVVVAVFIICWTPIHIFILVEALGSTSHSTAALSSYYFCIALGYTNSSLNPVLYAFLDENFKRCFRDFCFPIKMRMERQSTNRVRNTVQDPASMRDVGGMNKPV

CD1 mice = experiment: Reversal of tail flick antinociception by selective antagonists; format: in vivo, mouse; details: 3 1.5 mg/kg sc; β-FNA 40 mg/kg, norBNI 10 mg/kg, NTI 0.5 mg/kg, naloxone 1 mg/kg, yohimbine 10 mg/kg
α2C adrenergic receptor = molecular target: T1, α2C adrenergic receptor (Homo sapiens, UniProt P18825); experiment: PDSP screening; format: binding; details: in words (Table S1)
T1 sequence (P18825 1-462): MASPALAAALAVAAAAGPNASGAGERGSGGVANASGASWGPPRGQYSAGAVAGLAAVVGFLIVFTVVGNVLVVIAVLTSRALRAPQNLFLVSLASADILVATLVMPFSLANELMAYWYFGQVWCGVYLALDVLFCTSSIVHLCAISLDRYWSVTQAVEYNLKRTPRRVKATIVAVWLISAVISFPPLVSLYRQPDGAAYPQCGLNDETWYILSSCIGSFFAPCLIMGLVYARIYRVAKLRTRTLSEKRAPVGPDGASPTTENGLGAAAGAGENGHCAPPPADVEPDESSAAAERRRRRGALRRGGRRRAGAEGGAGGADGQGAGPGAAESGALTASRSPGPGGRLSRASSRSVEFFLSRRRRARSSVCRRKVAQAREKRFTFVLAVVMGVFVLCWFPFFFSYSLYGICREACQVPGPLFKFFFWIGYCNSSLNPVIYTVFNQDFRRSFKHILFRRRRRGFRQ

α2A adrenergic receptor = molecular target: T2, α2A adrenergic receptor (Homo sapiens, UniProt P08913); experiment: PDSP screening; format: binding; details: in words (Table S1)
T2 sequence (P08913 1-465): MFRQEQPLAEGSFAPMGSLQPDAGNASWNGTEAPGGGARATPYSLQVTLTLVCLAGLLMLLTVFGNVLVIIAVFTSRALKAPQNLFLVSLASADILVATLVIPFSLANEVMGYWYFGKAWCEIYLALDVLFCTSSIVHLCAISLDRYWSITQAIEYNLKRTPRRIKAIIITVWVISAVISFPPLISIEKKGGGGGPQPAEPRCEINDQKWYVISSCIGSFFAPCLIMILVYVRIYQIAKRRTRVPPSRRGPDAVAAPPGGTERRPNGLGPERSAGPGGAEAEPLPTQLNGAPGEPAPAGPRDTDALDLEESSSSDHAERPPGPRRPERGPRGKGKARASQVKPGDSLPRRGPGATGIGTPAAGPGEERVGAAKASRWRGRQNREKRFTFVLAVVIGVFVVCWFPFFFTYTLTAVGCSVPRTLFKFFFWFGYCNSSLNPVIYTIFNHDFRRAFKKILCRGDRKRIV

mice [6] = experiment: Antisense oligodeoxynucleotide mapping of tail flick antinociception; format: in vivo, mouse; details: 3 1.5 mg/kg sc, antisense icv days 1, 3, 5, test day 6
5HT7 = 5HT7 (Homo sapiens, UniProt P34969); experiment: PDSP screening; format: binding; details: in words (Table S1)
5HT7, sequence (P34969 whole entry, species assumed): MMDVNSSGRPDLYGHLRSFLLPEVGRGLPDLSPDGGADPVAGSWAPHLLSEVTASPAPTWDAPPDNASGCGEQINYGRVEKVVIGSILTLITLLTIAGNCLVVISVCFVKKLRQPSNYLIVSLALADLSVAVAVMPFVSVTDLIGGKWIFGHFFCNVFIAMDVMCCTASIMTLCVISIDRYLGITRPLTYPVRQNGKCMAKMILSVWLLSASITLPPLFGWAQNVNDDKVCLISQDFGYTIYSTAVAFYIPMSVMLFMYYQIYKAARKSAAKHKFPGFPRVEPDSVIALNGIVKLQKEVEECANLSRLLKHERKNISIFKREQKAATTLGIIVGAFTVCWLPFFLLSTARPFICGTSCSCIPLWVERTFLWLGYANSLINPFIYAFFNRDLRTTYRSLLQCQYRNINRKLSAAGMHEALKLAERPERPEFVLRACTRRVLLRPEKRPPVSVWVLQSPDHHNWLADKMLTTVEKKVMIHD

[7] = higher dose: morphine 10 mg/kg, 3 3 mg/kg sc
[8] = ~2× analgesic ED50: morphine 5 mg/kg sc, 3 1.2 mg/kg sc
[9] = dose twice analgesic ED50: morphine 5 mg/kg sc, 3 1.5 mg/kg sc

In the case of `CN1CC[C@]23c4c5ccc(O)c4O[C@H]2[C@@H](O)C=C[C@H]3[C@H]1C5` [morphine, reference compound], the “decrease of respiratory rate” value (C57BL/6 mice; [7]) is reported as “approximately 50%”, the “decrease of respiratory rate” value (C57BL/6 mice; [8]) is reported as “approximately 30%” and the “ED50 after 5 days” value (mice [1]; day 5) is reported as 12.1 (7.6–19.4) mg/kg. The “effect on gastrointestinal transit” value (mice [2]; [9]) was “almost totally eliminated transit”, the “conditioned place preference or aversion” value (mice [3]) was “significant conditioned place preference” and the ED50 (mice [4]; Mus musculus, sc, 0.25 h, read-out: antinociception sc, ED50 mg/kg (CI)) was 2.5 mg/kg.

With `CC[C@@H]1CN2CC[C@]3(Nc4cccc(-c5ccccc5)c4C3=O)[C@@H]2C[C@@H]1/C(=C\OC)C(=O)OC` [Compound 8, (E)-Methyl-2-((1′S,6′S,7′S)-6′-ethyl-3-oxo-4-phenyl-3′,5′,6′,7′,8′,8a′-hexahydro-2′H-spiro[indoline-2,1′-indolizine]-7′-yl)-3-methoxyacrylate] the “functional character at MOR-1” value (MOR-1) was “dual MOR-1/DOR-1 agonist” and the “functional character at DOR-1” value (DOR-1) was “dual MOR-1/DOR-1 agonist”.

For `CC[C@@H]1CN2CC[C@@]3(O)C(=Nc4cccc(OC)c43)[C@@H]2C[C@@H]1/C(=C\OC)C(=O)OC` [Compound 2, (E)-Methyl-2-((2S,3S,7aS)-3-ethyl-7a-hydroxy-8-methoxy-1,2,3,4,6,7,7a,12b-octahydroindolo[2,3-a]quinolizin-2-yl)-3-methoxyacrylate], the Ki [5] was over 10 µM, the “functional character at MOR-1” value (MOR-1) was “partial agonist” and the “functional character at DOR-1” value (DOR-1) was “weak KOR-1 and DOR-1 antagonist”. The “functional character at KOR-1” value (KOR-1) was “weak KOR-1 and DOR-1 antagonist”.

In the case of `CC[C@@H]1CN2CC[C@]3(Nc4cccc(-c5ccoc5)c4C3=O)[C@@H]2C[C@@H]1/C(=C\OC)C(=O)OC` [Compound 9, (E)-Methyl-2-((1′S,6′S,7′S)-6′-ethyl-4-(furan-3-yl)-3-oxo-3′,5′,6′,7′,8′,8a′-hexahydro-2′H-spiro[indoline-2,1′-indolizine]-7′-yl)-3-methoxyacrylate], the “functional character at MOR-1” value (MOR-1) is reported as “MOR-1 agonists” and the “functional character at DOR-1” value (DOR-1) is reported as “DOR-1 antagonists”.

In the case of `CC[C@@H]1CN2CC[C@]3(Nc4ccccc4C3=O)[C@@H]2C[C@@H]1/C(=C\OC)C(=O)OC` [Compound 6, (E)-Methyl-2-((1′S,6′S,7′S)-6′-ethyl-3-oxo-3′,5′,6′,7′,8′,8a′-hexahydro-2′H-spiro[indoline-2,1′-indolizin]-7′-yl)-3-methoxyacrylate], the “functional character at MOR-1” value (MOR-1) is reported as “MOR-1 agonists” and the “functional character at DOR-1” value (DOR-1) is reported as “DOR-1 antagonists”.

With `CC[C@@H]1CN2CC[C@]3(Nc4cccc(O)c4C3=O)[C@@H]2C[C@@H]1/C(=C\OC)C(=O)OC` [Compound 4, (E)-Methyl-2-((1′S,6′S,7′S)-6′-ethyl-4-hydroxy-3-oxo-3′,5′,6′,7′,8′,8a′-hexahydro-2′H-spiro[indoline-2,1′-indolizine]-7′-yl)-3-methoxyacrylate] the “functional character at MOR-1” value (MOR-1) was “MOR-1 agonists” and the “functional character at DOR-1” value (DOR-1) was “DOR-1 antagonists”.

In the case of `CC[C@@H]1CN2CC[C@]3(Nc4cccc(OC)c4C3=O)[C@@H]2C[C@@H]1/C(=C\OC)C(=O)OC` [Compound 3, (E)-Methyl-2-((1′S,6′S,7′S)-6′-ethyl-4-methoxy-3-oxo-3′,5′,6′,7′,8′,8a′-hexahydro-2′H-spiro[indoline-2,1′-indolizine]-7′-yl)-3-methoxyacrylate], the “sensitivity of antinociception to antagonists” value (CD1 mice) is reported as “insensitive to NTI, norBNI, and yohimbine; also recorded: antagonized by β-FNA and naloxone”, the “affinity at α2C adrenergic receptor” value (α2C adrenergic receptor) is reported as “poor affinity” and the “decrease of respiratory rate” value (C57BL/6 mice; [7]) is reported as “approximately 15%”. The “decrease of respiratory rate” value (C57BL/6 mice; [8]) was “no respiratory depression”, the “ED50 shift after 5 days” value (mice [1]) was under 2 fold and the “mean difference between 3 and morphine groups on day 5” value (mice [1]; 95% CI 42.27 to 65.67) was 53.97 %MPE. For the same molecule, the “affinity at α2A adrenergic receptor” value (α2A adrenergic receptor) was “poor affinity”, the “functional character at MOR-1” value (MOR-1) was “potent full agonist” and the “effect of antisense receptor downregulation on analgesic response” value (mice [6]) was “only affected in mu receptor downregulated mice (MOR-1 AN)”. The “effect on gastrointestinal transit” value (mice [2]; 3 at 4 mg/kg sc) was “no further inhibition”, the “effect on gastrointestinal transit” value (mice [2]; [9]) was “lowered gastrointestinal transit, but not nearly as much as morphine” and the “functional character at DOR-1” value (DOR-1) was “antagonist”. The “affinity at 5HT7” value (5HT7) was “poor affinity”, the “conditioned place preference or aversion” value (mice [3]) was “neither preference or aversive behavior” and the “functional character at KOR-1” value (KOR-1) was “antagonist”. For the same molecule, the “antinociceptive activity across mouse strains” value (mice [4]; CD1, C57BL/6 and 129Sv6 mice, sc (Figure S5)) was “equally active”, the “ED50 (95% CI), intracerebroventricular” value (mice [4]; CD1 mice, icv, tail flick, 15 min) was 0.38 (0.18- 0.81) μg and the “ED50, exon 1/exon 11 double KO mice” value (mice [4]; E1/E11 MOR-1 KO mice, sc, tail flick) was “no antinociception was observed”.

`CC[C@@H]1CN2CC[C@]3(Nc4cccc(C#N)c4C3=O)[C@@H]2C[C@@H]1/C(=C\OC)C(=O)OC` [Compound 7, (E)-Methyl-2-((1′S,6′S,7′S)-4-cyano-6′-ethyl-3-oxo-3′,5′,6′,7′,8′,8a′-hexahydro-2′H-spiro[indoline-2,1′-indolizine]-7′-yl)-3-methoxyacrylate] was tested, and the “functional character at MOR-1” value (MOR-1) was “MOR-1 agonists” and the “functional character at DOR-1” value (DOR-1) was “DOR-1 antagonists”.
